For orientation: IC50 means the concentration needed to halve the response being measured.

Each structure is given as a SMILES string.

The target in this experiment is hACSL5 (Homo sapiens (Human), UniProt Q9ULC5). The experiment can be described thus: Human ACSL5 coupled enzyme Amplex Red assay. It is filed as biochemical. Conditions: read-out: hACSL5 IC50. The protocol: Human ACSL5 (33-683) was cloned with a C-terminal 6 His tag and expressed in insect cells (sf9) as per standard insect cell expression protocols. Human ACSL5 was enriched by affinity nickel affinity chromatography followed by Superdex S200 gel filtration column equilibrated in 20 mM HEPES pH 7.8, 500 mM NaCl, 1 mM TCEP, 5% glycerol, 0.1% Triton X^100.
Chain of hACSL5 (Q9ULC5 33-683): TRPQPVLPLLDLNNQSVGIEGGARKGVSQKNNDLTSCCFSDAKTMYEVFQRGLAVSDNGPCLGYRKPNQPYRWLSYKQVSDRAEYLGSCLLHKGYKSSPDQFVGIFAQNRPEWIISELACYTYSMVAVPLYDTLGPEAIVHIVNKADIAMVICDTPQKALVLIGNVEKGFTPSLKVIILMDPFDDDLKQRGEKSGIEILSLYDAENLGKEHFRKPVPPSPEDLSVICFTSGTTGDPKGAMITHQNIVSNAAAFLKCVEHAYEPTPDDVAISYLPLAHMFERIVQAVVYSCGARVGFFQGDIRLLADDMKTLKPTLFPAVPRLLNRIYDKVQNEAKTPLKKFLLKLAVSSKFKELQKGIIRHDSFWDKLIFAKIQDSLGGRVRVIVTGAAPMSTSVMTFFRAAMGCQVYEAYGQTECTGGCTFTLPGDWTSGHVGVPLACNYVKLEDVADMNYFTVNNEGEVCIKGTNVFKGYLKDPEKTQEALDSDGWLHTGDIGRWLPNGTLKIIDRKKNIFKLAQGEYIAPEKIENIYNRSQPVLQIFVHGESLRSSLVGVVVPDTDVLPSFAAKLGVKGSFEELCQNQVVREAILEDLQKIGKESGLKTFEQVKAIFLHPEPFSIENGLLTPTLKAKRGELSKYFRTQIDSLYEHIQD
Inhibition of ACSL5 enzyme activity was monitored with a coupled enzyme Amplex Red assay.
The assay is carried out in 384-well microtiterplates. In a total volume of […], compounds are preincubated with 20 nM ACSL5, in a buffer containing 150 mM MOPS-NaOH, 12 mM MgCl2, 0.03% (v/v) Triton X-100, 2.79 U mL-1 Peroxidase and 24 U mL-1 Acyl-CoA Oxidase (pH 7.6). The reaction is started by the addition of substrate and co factors (25 μM oleate, 30 μM CoA, 1 mM ATP and 50 μM Amplex Red) and the fluorescence detected after 10 minutes at 25° C. with a fluorescence reader (BMG-Fluostar; BMG-Technologies) using an excitation wavelength of 535 nm and an emission wavelength of 590 nm.
Concentration-response titration points for each compound tested were filled to the Hill equation yielding concentrations of half maximal inhibition […] and maximal inhibition values.
With `CC[C@@H](Oc1ccc(C(=O)NS(=O)(=O)c2ccc(O[C@H]3CCCN(C)C3)cc2)c(F)c1F)c1ccc(OCC2CC2)cn1` [4-((R)-1-(5-(cyclopropylmethoxy)pyridin-2-yl)propoxy)-2,3-difluoro-N-((4-(((S)-1-methylpiperidin-3-yl)oxy)phenyl)sulfonyl)benzamide], the 50% inhibitory concentration (IC50) was < 100 nM.
The figure for `CCCCCOc1cccc(C(C)Oc2ccc(C(=O)NS(=O)(=O)c3ccc(CN)cc3)cc2C(F)(F)F)c1` (stereo not drawn) [N-((4-(aminomethyl)phenyl)sulfonyl)-4-(1-(3-(pentyloxy)phenyl)ethoxy)-3-(trifluoromethyl)benzamide] is 100 to 500 nM; for `CC[C@@H](Oc1ccc(C(=O)NS(=O)(=O)N2CC3(CN(C)C3)C2)c(F)c1F)c1ccc(OCC2CC2)cn1` [(R)-4-(1-(5-(cyclopropylmethoxy)pyridin-2-yl)propoxy)-2,3-difluoro-N-((6-methyl-2,6-diazaspiro[3.3]heptan-2-yl)sulfonyl)benzamide] it is 100 to 500 nM; for `CC[C@@H](Oc1ccc(C(=O)NS(=O)(=O)N2CC3=C(CN(C)C3)C2)c(F)c1F)c1ccc(OCC2CC2)cn1` [(R)-4-(1-(5-(cyclopropylmethoxy)pyridin-2-yl)propoxy)-2,3-difluoro-N-((5-methyl-3,4,5,6-tetrahydropyrrolo[3,4-c]pyrrol-2(1H)-yl)sulfonyl)benzamide] it is 100 to 500 nM.
The figure for `CC(Oc1ccc(C(=O)NS(=O)(=O)c2ccc(CN)cc2)cc1C(F)(F)F)c1cccc(OCC2CCCC2)c1` (stereo not drawn) [N-((4-(aminomethyl)phenyl)sulfonyl)-4-(1-(3-(cyclopentylmethoxy)phenyl)ethoxy)-3-(trifluoromethyl)benzamide] is > 500 nM.
The figure for `CC[C@@H](Oc1ccc(C(=O)NS(=O)(=O)N2CC3CC(C2)N3C)c(F)c1F)c1ccc(Oc2ccccn2)cn1` [2,3-difluoro-N-((6-methyl-3,6-diazabicyclo[3.1.1]heptan-3-yl)sulfonyl)-4-((R)-1-(5-(pyridin-2-yloxy)pyridin-2-yl)propoxy)benzamide] is < 100 nM; for `CC(COc1ccc(C(=O)NS(=O)(=O)c2ccc(CN)cc2)cc1C(F)(F)F)c1cccc(Oc2ccccc2)c1` (stereo not drawn) [N-((4-(aminomethyl)phenyl)sulfonyl)-4-(2-(3-phenoxyphenyl)propoxy)-3-(trifluoromethyl)benzamide] it is 100 to 500 nM.
`NCc1ccc(S(=O)(=O)NC(=O)c2ccc(OCc3ccc(Oc4ccccc4)cc3)c(F)c2F)cc1` [N-((4-(aminomethyl)phenyl)sulfonyl)-2,3-difluoro-4-((4-phenoxybenzyl)oxy)benzamide]: the IC50 was > 500 nM.
The result for `CC(Oc1ccc(C(=O)NS(=O)(=O)c2ccc(CN)cc2)cc1C(F)(F)F)c1cccc(Oc2ccccn2)c1` (stereo not drawn) [N-((4-(aminomethyl)phenyl)sulfonyl)-4-(1-(3-(pyridin-2-yloxy)phenyl)ethoxy)-3-(trifluoromethyl)benzamide] reads < 100 nM; that for `CC[C@@H](Oc1ccc(C(=O)NS(=O)(=O)N2CC(OC3CCN(C)CC3)C2)c(F)c1F)c1ccc(OCC2CC2)cn1` [(R)-4-(1-(5-(cyclopropylmethoxy)pyridin-2-yl)propoxy)-2,3-difluoro-N-((3-((1-methylpiperidin-4-yl)oxy)azetidin-1-yl)sulfonyl)benzamide], 100 to 500 nM; that for `CNCc1ccc(S(=O)(=O)NC(=O)c2ccc(OCc3cccc(Oc4ccccc4)c3)c(F)c2F)cc1` [2,3-difluoro-N-((4-((methylamino)methyl)phenyl)sulfonyl)-4-((3-phenoxybenzyl)oxy)benzamide], < 100 nM.
For `CC(Oc1ccc(C(=O)NS(=O)(=O)c2ccc(CN)cc2)c(F)c1F)c1cccc(Oc2cccnc2)c1` (stereo not drawn) [N-((4-(aminomethyl)phenyl)sulfonyl)-2,3-difluoro-4-(1-(3-(pyridin-3-yloxy)phenyl)ethoxy)benzamide], the concentration for half-maximal inhibition (IC50) is < 100 nM.
In the case of `CC[C@@H](Oc1ccc(C(=O)NS(=O)(=O)N2CCC(OC3CCN(C)CC3)CC2)c(F)c1F)c1ccc(OCCOC)cn1` [(R)-2,3-difluoro-4-(1-(5-(2-methoxyethoxy)pyridin-2-yl)propoxy)-N-((4-((1-methylpiperidin-4-yl)oxy)piperidin-1-yl)sulfonyl)benzamide], the half-maximal inhibitory concentration (IC50) is > 500 nM.
The figure for `CCOc1ccc(C(C)Oc2ccc(C(=O)NS(=O)(=O)N3CCN(C)CC3)c(F)c2F)nc1` (stereo not drawn) [4-(1-(5-ethoxypyridin-2-yl)ethoxy)-2,3-difluoro-N-((4-methylpiperazin-1-yl)sulfonyl)benzamide] is > 500 nM; for `CC(Oc1ccc(C(=O)NS(=O)(=O)c2ccc(CN)cc2)cc1C(F)(F)F)c1cccc(Oc2cnn(C)c2)c1` (stereo not drawn) [N-((4-(aminomethyl)phenyl)sulfonyl)-4-(1-(3-((1-methyl-1H-pyrazol-4-yl)oxy)phenyl)ethoxy)-3-(trifluoromethyl)benzamide] it is > 500 nM; for `CC(Oc1ccc(C(=O)NS(=O)(=O)c2ccc(CN)cc2)c(F)c1F)c1cccc(Oc2ccccc2)c1` (stereo not drawn) [N-((4-(aminomethyl)phenyl)sulfonyl)-2,3-difluoro-4-(1-(3-phenoxyphenyl)ethoxy)benzamide] it is < 100 nM.
The figure for `CC[C@@H](Oc1ccc(C(=O)NS(=O)(=O)N2CCC(OC3CN(C)C3)CC2)c(F)c1F)c1ccc(OCC2CC2)cn1` [(R)-4-(1-(5-(cyclopropylmethoxy)pyridin-2-yl)propoxy)-2,3-difluoro-N-((4-((1-methylazetidin-3-yl)oxy)piperidin-1-yl)sulfonyl)benzamide] is 100 to 500 nM; for `CN(C)Cc1ccc(S(=O)(=O)NC(=O)c2ccc(OCc3cccc(Oc4ccccc4)c3)c(F)c2F)cc1` [N-((4-((dimethylamino)methyl)phenyl)sulfonyl)-2,3-difluoro-4-((3-phenoxybenzyl)oxy)benzamide] it is 100 to 500 nM; for `CC(Oc1ccc(C(=O)NS(=O)(=O)c2ccc(CN)cc2)c(Cl)c1Cl)c1cccc(Oc2ccccc2)c1` (racemic) [rac-(R)-N-((4-(aminomethyl)phenyl)sulfonyl)-2,3-dichloro-4-(1-(3-phenoxyphenyl)ethoxy)benzamide] it is < 100 nM.
On to `CCCC(C)COc1cccc(C(C)Oc2ccc(C(=O)NS(=O)(=O)c3ccc(CN)cc3)cc2C(F)(F)F)c1` (stereo not drawn) [N-((4-(aminomethyl)phenyl)sulfonyl)-4-(1-(3-((2-methylpentyl)oxy)phenyl)ethoxy)-3-(trifluoromethyl)benzamide], for which the IC50 was > 500 nM.
The figure for `CC[C@@H](Oc1ccc(C(=O)NS(=O)(=O)N2CCN(CC)CC2)c(F)c1F)c1ccc(OC2CC(OC)C2)cn1` (stereo partly drawn) [N-((4-ethylpiperazin-1-yl)sulfonyl)-2,3-difluoro-4-((R)-1-(5-((1R,3R)-3-methoxycyclobutoxy)pyridin-2-yl)propoxy)benzamide] is 100 to 500 nM; for `CC(COc1ccc(C(=O)NS(=O)(=O)c2ccc(CN)cc2)c(Cl)c1Cl)c1cccc(Oc2ccccc2)c1` (stereo not drawn) [N-((4-(aminomethyl)phenyl)sulfonyl)-2,3-dichloro-4-(2-(3-phenoxyphenyl)propoxy)benzamide] it is 100 to 500 nM; for `CC(Oc1ccc(C(=O)NS(=O)(=O)c2ccc(CN)cc2)cc1C(F)(F)F)c1cccc(OC2CCCC2)c1` (stereo not drawn) [N-((4-(aminomethyl)phenyl)sulfonyl)-4-(1-(3-(cyclopentyloxy)phenyl)ethoxy)-3-(trifluoromethyl)benzamide] it is > 500 nM.
The result for `CC[C@@H](Oc1ccc(C(=O)NS(=O)(=O)N2CCC(OC3CCN(C)CC3)CC2)c(F)c1F)c1cc(OC2CC(OC)C2)ccn1` (stereo partly drawn) [2,3-difluoro-4-((R)-1-(4-((1R,3R)-3-methoxycyclobutoxy)pyridin-2-yl)propoxy)-N-((4-((1-methylpiperidin-4-yl)oxy)piperidin-1-yl)sulfonyl)benzamide] reads > 500 nM.
The result for `CCOc1ccc(C(CC)Oc2ccc(C(=O)NS(=O)(=O)CCCN3CCOCC3)cc2C(F)(F)F)nc1` (stereo not drawn) [4-(1-(5-ethoxypyridin-2-yl)propoxy)-N-((3-morpholinopropyl)sulfonyl)-3-(trifluoromethyl)benzamide] reads 100 to 500 nM; that for `CCOc1ccc(C(C)Oc2ccc(C(=O)NS(=O)(=O)C3CCNCC3)c(F)c2F)nc1` (stereo not drawn) [4-(1-(5-ethoxypyridin-2-yl)ethoxy)-2,3-difluoro-N-(piperidin-4-ylsulfonyl)benzamide], > 500 nM.
In the case of `CC[C@@H](Oc1ccc(C(=O)NS(=O)(=O)N2CCN(CC)CC2)cc1C(F)(F)F)c1ccc(OC2CC(OC)C2)cn1` (stereo partly drawn) [N-((4-ethylpiperazin-1-yl)sulfonyl)-4-((R)-1-(5-((1R,3R)-3-methoxycyclobutoxy)pyridin-2-yl)propoxy)-3-(trifluoromethyl)benzamide], the IC50 was in the range of 100 to 500 nM.
The figure for `Cc1cc(C(=O)NS(=O)(=O)c2ccc(CN)cc2)ccc1OC(C)c1cccc(Oc2ccccc2)c1` (racemic) [rac-(R)-N-((4-(aminomethyl)phenyl)sulfonyl)-3-methyl-4-(1-(3-phenoxyphenyl)ethoxy)benzamide] is < 100 nM; for `CC(Oc1ccc(C(=O)NS(=O)(=O)CCN)cc1C(F)(F)F)c1cccc(Oc2ccccc2)c1` (racemic) [rac-(R)-N-((2-aminoethyl)sulfonyl)-4-(1-(3-phenoxyphenyl)ethoxy)-3-(trifluoromethyl)benzamide] it is 100 to 500 nM.
`CC[C@@H](Oc1ccc(C(=O)NS(=O)(=O)c2ccc(OC3CCN(C)CC3)cc2)c(F)c1F)c1ccc(OCCOC)cn1` [(R)-2,3-difluoro-4-(1-(5-(2-methoxyethoxy)pyridin-2-yl)propoxy)-N-((4-((1-methylpiperidin-4-yl)oxy)phenyl)sulfonyl)benzamide]: the IC50 is > 500 nM.

(Values after patent publication US20250275959A1, “COMPOUNDS AND METHODS OF THEIR USE” (LEXICON PHARMACEUTICALS, INC., priority 2024, published 2025).)
